Here are results for 1 compound from patent US20220187275A1, “SYSTEMS AND METHODS FOR DIRECTED FORMATION OF SIZE-CONTROLLED MULTI-CELLULAR STRUCTURES AND MEASUREMENT OF FORCES GENERATED BY THE SAME” (Forcyte Biotechnologies, Inc., priority 2019, published 2022).

This assay relates to primary human airway smooth muscle cells. The conditions noted are these: 384-well plate, 24 hours serum starvation, histamine final concentration 100 micromolar, imaged at 1 minute intervals.

Method: To achieve the result depicted in FIG. 9, approximately 2000-2500 primary human airway smooth muscle cells were seeded into each of several wells on a microplate comprising 384 wells each with at least 60 MCS-supporting micropatterns deposed on their surface, in Ham's F12 medium supplemented with 10% serum and incubated for 5 days. The MCS-supporting micropatterns comprised a fluorophore-conjugated material comprising human fibrinogen conjugated to Alexa Fluor® 546 dye.
On day 5, MCS comprising the primary airway smooth muscle cells were observed within the wells. At this point, the serum-supplemented medium was replaced with serum-free medium to induce the contractile phenotype in the MCS. […] This step was taken to maximize contractile responsiveness to agonist in the next step.
After 24 hours of serum starvation, the microplate containing the MCS was imaged using a fluorescent microscope prior to any chemical addition in the fluorescent channel that corresponds to the fluorophore used in the MCS-supporting micropattern.

For `NCCc1c[nH]cn1` [histamine], the “contraction of the MCS (size of MCS-supporting micropatterns relative to baseline contracted state) after addition of agonist” value is “contraction”.
